PMC8658989, “Synthesis and Biological Studies on (KLAKLAK)2-NH2 Analog Containing Unnatural Amino Acid β-Ala and Conjugates with Second Pharmacophore” (Molecules, 2021)
Where two headings read alike, the source gives them in different places. Non-standard residues stand in square brackets, D forms with d. Residues, ends and D or L forms follow the SMILES beside them. *: point of attachment. Acetyl(1,8-naphthalimido) = O=C1c2cccc3cccc(c23)C(=O)N1CC(=O)*; Caffeoyl = O=C(/C=C/c1ccc(O)c(O)c1)*; βAla = NCCC(=O)O

Columns and labels:
Candida albicans 74 = test: Antimicrobial assay, agar/disc diffusion, C. albicans; type: cell-based; conditions: 6 μL of 20 μM solution on 6 mm paper disc, 24 h
Procedure: (§1) The microbial cultures were placed in a thin layer on sterile plates. On sterile paper discs, 6 μL of 20 μM solutions in distilled water of the test compounds was placed. Further, the discs were incorporated into a thin layer of sterile plates (Figure 3). The studies were triplicates for each concentration, and the diameters of the obtained zones represent the average value of the three results.
(§2) All newly synthesized derivatives of (KLAKLAK)2-NH2 at concentrations of 20 μM in distilled water were tested against model strains E. coli NBIMCC K12 407, B. subtilis NBIMCC 3562 and C. albicans NBIMCC 74. The strains were obtained from the National Bank for Industrial Microorganisms and Cell Cultures (NBIMCC, Sofia, Bulgaria). Exponential cultures (1 × 10^7 cfu/mL) of strains E. coli K12 407 were obtained in Luria-Bertani (LB, HiMedia, Mumbai, India); for B. subtilis 3562, an initial bacterial concentration of 1 × 10^6 cfu/mL was obtained in nutrient broth (NB, HiMedia, Mumbai, India); and for C. albicans 74, and initial bacterial concentration of 1 × 10^5 cfu/mL was obtained in yeast mold (YM) medium. Cultivation was performed in an ES-20/60 incubator shaker (Biosan, Riga, Latvia) at 30 °C for B. subtilis 3562 and at 37 °C for E. coli K12 407 and C. albicans 74 with shaking at 220 rpm for 24 h. The agar diffusion method was applied to determine the antimicrobial activity of the tested compounds. LB/NB/YM plates were inoculated by spreading 100 μL of each microbial culture on their surface, followed by incubation at 30/37 °C for penetration of suspension into the agar. After 30 min, sterile paper discs (6 mm in diameter) were soaked with the tested compounds in amounts of 6 µL and placed on the surface of agar Petri dishes. The plates were incubated at 30/37 °C for 24 h. Antimicrobial activity was assessed by measuring the diameter of the obtained inhibition zones. Sterile paper discs soaked with water were used as blank controls. Mean values were calculated by performing the experiments in triplicates.

Bacillus subtilis 3562 = test: Antimicrobial assay, agar/disc diffusion, B. subtilis; type: cell-based; conditions: 6 μL of 20 μM solution on 6 mm paper disc, 24 h
Procedure: as §1, §2

[1] = In vitro cytotoxicity, 3T3 NRU test; type: cell-based; conditions: mouse, BALB/3T3 clone A31 mouse embryo cells, 24 h incubation, 15 to 2000 μM, read-out: IC50 of Mean ± SD Cytotoxicity BALB 3T3 (CC50)
Procedure: The newly synthesized compounds were studied for cytotoxicity assessment by an in vitro 3T3 NRU test. The cells were incubated with the test substances at a concentration of 15 to 2000 μM for 24 h at 37 °C, 5% CO2 and 95% humidity. The cytotoxicity expressed in % relative to the negative control was determined.
The cytotoxicity testing was performed as described by Borenfreund et al. and the latest modification of the validated BALB/3T3 clone A31 Neutral Red Uptake Assay (3T3 NRU test). BALB/3T3 clone A31 mouse embryo cells were grown as a monolayer in 75 cm^2 tissue culture flasks in high-glucose DMEM (4.5 g/L), supplemented with 10% FBS and antibiotics. Cultures were maintained at 37.5 °C in a humidified atmosphere under 5% CO2. Cells were plated at a density of 1 × 10^4 cells in 100 μL culture medium in each well of 96-well flat-bottomed microplates and allowed to adhere for 24 h before treatment with test compounds, dissolved in DMSO and further diluted in culture medium. A wide concentration range was applied (from 15 to 2000 μM), and the cells were incubated for an additional 24 h. After treatment with Neutral Red medium, washing and application of the ethanol/acetic acid solution (NR Desorb), the absorption was measured on a TECAN microplate reader at wavelength 540 nm. The data obtained are on average from three independent experiments ± SD, n = 6.

Escherichia coli K12 407 = test: Antimicrobial assay, agar/disc diffusion, E. coli; type: cell-based; conditions: 6 μL of 20 μM solution on 6 mm paper disc, 24 h
Procedure: as §1, §2

MCF-7 = test: Antiproliferative activity, MTT dye-reduction assay, MCF-7; type: cell-based, human; conditions: for IC50: MTT, 72 h, read-out: IC50 of Mean ± SD Antiproliferative Activity MCF-7; for SI ± SD MCF-7 (selective index): SI = IC50 of MCF-10A/IC50 of MCF-7
Procedure: (§3) The compounds were studied for antiproliferative activity by MTT dye-reduction assay. Cell cultures from different cell lines (MCF-10A, MCF-7 and MDA-MB-231) were incubated with the test substances at a concentration of 15 to 2000 μM for 72 h at 37 °C, 5% CO2 and 95% humidity. The antiproliferative activity expressed in % relative to the negative control was determined.
(§4) The antiproliferative activity testing was performed on cell cultures from several human cell lines using the standard MTT dye-reduction assay, described by Mosmann. The assay is based on the metabolism of the tetrazolium salt 3-(4,5-dimethylthiazol-2-yl)-2,5-diphenyltetrazolium bromide (MTT) to insoluble formazan by mitochondrial reductases. The formazan concentration can be determined spectrophotometrically. The measured absorption is an indicator of cell viability and metabolic activity. The following cell lines were used in the experiments: mammary gland type A adenocarcinoma ER+, PR+ and HER2− (MCF-7); triple-negative breast cancer ER−, PR−, and HER2− (MDA-MB-231); and breast, nontumorigenic epithelial cell line (MCF-10A). The cell lines were routinely grown as monolayers in 75 cm^2 tissue culture flasks under standard conditions (described above). Cells were plated at a density of 1 × 10^3 cells in 100 µL in each well of 96-well flat-bottomed microplates and allowed to adhere for 24 h before treatment with test compounds. A concentration range from 15 to 2000 μM was applied for 72 h. Formazan absorption was registered using a microplate reader at λ = 540 nm. Antiproliferative activities were expressed as IC50 values (concentrations required for 50% inhibition of cell growth), calculated using nonlinear regression analysis (GraphPad Prism 4 Software, https://www.graphpad.com).

MCF-10A = test: Antiproliferative activity, MTT dye-reduction assay, MCF-10A; type: cell-based, human; conditions: 72 h, read-out: IC50 of Mean ± SD Antiproliferative Activity MCF-10A
Procedure: as §3
MCF-10A is a reliable model for normal human mammary epithelial cells, which serves as a control in experiments to determine antitumor activity.
as §4

MDA-MB-231 = test: Antiproliferative activity, MTT dye-reduction assay, MDA-MB-231; type: cell-based, human; conditions: for IC50: MTT, 72 h, read-out: IC50 of Mean ± SD Antiproliferative Activity MDA-MB-231; for SI ± SD MDA-MB-231 (selective index): SI = IC50 of MCF-10A/IC50 of MDA-MB-231
Procedure: as §3, §4

[2] = Hydrolytic stability in model buffer solutions by HPLC; type: physicochemical; conditions: 72 h, model buffer solutions pH 2, pH 7.4 and pH 9, HPLC
Procedure: HPLC profiles of all target compounds at three different pH values that mimic human pH in the stomach (pH 2), blood plasma (pH 7.4) and small intestine (pH 9) are presented in the Supplementary Materials.
The designed changes in the structures, i.e., C-terminal amide modification, as well as the introduction of a β-Ala moiety, lead to complete stability of the target compounds during the test period in all model conditions.
The obtained solution was made up to 1000.0 mL with dH2O; • (ii) Buffer with pH 7.4–2.38 g Na2HPO4, 0.19 g KH2PO4 and 8.0 g NaCl was dissolved in dH2O. The obtained solution was made up to 1000.0 mL with dH2O. • (iii) Buffer with pH 9.0–1000.0 mL of solution I was mixed with 420.0 mL of solution II. Solution I: 6.18 g of H3BO3 was dissolved in 0.1 mol/L KCl, and it was made up to 1000.0 mL with the same solvent; Solution II: 0.1 mol/L NaOH.

Compound | melting point [°C] | Inhibition zones size, Candida albicans 74 (Candida albicans 74) | Inhibition zones size, Bacillus subtilis 3562 (Bacillus subtilis 3562) | CC50 at 24 h [1] [µM] | Inhibition zones size, Escherichia coli K12 407 (Escherichia coli K12 407) | IC50 (MCF-7) [µM] | SI ± SD MCF-7 (selective index) (MCF-7) | SI ± SD MCF-7 (selective index) (MCF-7; listed as Si 4) | Inhibition zones size, Candida albicans 74 (Candida albicans 74; listed as Si 4) [mm] | IC50 (MCF-10A) [µM] | Inhibition zones size, Bacillus subtilis 3562 (Bacillus subtilis 3562; listed as S4) [mm] | Inhibition zones size, Escherichia coli K12 407 (Escherichia coli K12 407; listed as S4) [mm] | IC50 (MDA-MB-231) [µM] | SI ± SD MDA-MB-231 (selective index) (MDA-MB-231) | Hydrolytic stability [2] | Inhibition zones size, Candida albicans 74 (Candida albicans 74; listed as Si 5) [mm] | IC50 (MCF-7; listed as Si 9) [µM] | SI ± SD MCF-7 (selective index) (MCF-7; listed as Si 9)
CC(C)C[C@H](NC(=O)[C@H](CCCCN)NC(=O)/C=C/c1ccc(O)c(O)c1)C(=O)NCCC(=O)N[C@@H](CCCCN)C(=O)N[C@@H](CC(C)C)C(=O)NCCC(=O)N[C@@H](CCCCN)C(=O)N[C@@H](CCCCN)C(=O)N[C@@H](CC(C)C)C(=O)NCCC(=O)N[C@@H](CCCCN)C(=O)N[C@@H](CC(C)C)C(=O)NCCC(=O)N[C@@H](CCCCN)C(N)=O [Si12, Caf-(KLβ-AKLβ-AK)2-NH2] (Caffeoyl-KL[βAla]KL[βAla]KKL[βAla]KL[βAla]K-NH2) | 160 to 162 | did not show any antifungal activity | good antimicrobial activity | 880 ± 30.3 | good antimicrobial activity |  |  |  |  |  |  |  |  |  |  |  |  | 
CC(C)C[C@H](NC(=O)[C@H](CCCCN)NC(=O)CCNC(=O)[C@H](CC(C)C)NC(=O)[C@H](CCCCN)NC(=O)CN1C(=O)c2cccc3cccc(c23)C1=O)C(=O)NCCC(=O)N[C@@H](CCCCN)C(=O)N[C@@H](CCCCN)C(=O)N[C@@H](CC(C)C)C(=O)NCCC(=O)N[C@@H](CCCCN)C(=O)N[C@@H](CC(C)C)C(=O)NCCC(=O)N[C@@H](CCCCN)C(N)=O [Si4, 1,8-NphtG-(KLβ-AKLβ-AK)2-NH2] ({Acetyl(1,8-naphthalimido)}-KL[βAla]KL[βAla]KKL[βAla]KL[βAla]K-NH2) |  | good antimicrobial activity |  | 1220 ± 40.5 |  | 881 ± 80.5 | 1.51 ± 0.148 | 1.505 ± 0.148 | 14.33 ± 0.36 | 1330 ± 69.5 | 15.83 | 16 | 1410 ± 26.2 | 0.940 ± 0.049 | complete hydrolytic stability |  |  | 
CC(C)C[C@H](NC(=O)[C@H](CCCCN)NC(=O)CCNC(=O)[C@H](CC(C)C)NC(=O)[C@H](CCCCN)NC(=O)[C@H](CCCCN)NC(=O)CCNC(=O)[C@H](CC(C)C)NC(=O)[C@H](CCCCN)NC(=O)CCNC(=O)[C@H](CC(C)C)NC(=O)[C@@H](N)CCCCN)C(=O)NCCC(=O)N[C@@H](CCCCN)C(N)=O [Si5, (KLβ-AKLβ-AK)2-NH2] (H-KL[βAla]KL[βAla]KKL[βAla]KL[βAla]K-NH2) |  | did not show any antifungal activity | 11.16 ± 0.25 mm | 1270 ± 70.7 | 11.83 ± 0.27 mm | 1250 ± 34.1 | 1.028 ± 0.033 |  |  | 1290 ± 38.1 |  |  | 1450 ± 15.7 | 0.890 ± 0.033 | complete hydrolytic stability | 0 |  | 
CC(C)C[C@H](NC(=O)[C@H](CCCCN)NC(=O)CN1C(=O)c2cccc3cccc(c23)C1=O)C(=O)N[C@@H](C)C(=O)N[C@@H](CCCCN)C(=O)N[C@@H](CC(C)C)C(=O)N[C@@H](C)C(=O)N[C@@H](CCCCN)C(=O)N[C@@H](CCCCN)C(=O)N[C@@H](CC(C)C)C(=O)N[C@@H](C)C(=O)N[C@@H](CCCCN)C(=O)N[C@@H](CC(C)C)C(=O)N[C@@H](C)C(=O)N[C@@H](CCCCN)C(N)=O [Si9, 1,8-NphtG-(KLAKLAK)2-NH2] |  | 20.66 ± 0.45 mm | 13.50 ± 0.34 mm | 185 ± 4.4 | 11.33 ± 0.26 mm | 45 ± 4.2 | 2.19 ± 0.147 |  |  | 99.1 ± 5.59 |  |  | 179 ± 2.92 | 0.553 ± 0.037 | complete hydrolytic stability |  | 45.2 ± 4.15 | 2.192 ± 0.147
